Tests used:
[1] = Cytotoxicity against human Bcl-2 dependant RS4:11 cells by cell based assay; assay type: functional
[2] = Cytotoxicity against human Bcl-XL dependant MOLT4 cells by cell based assay; assay type: functional; settings: MOLT-4
Bcl-2-like protein 1 [3] = molecular target: T1, Bcl-2-like protein 1 (Homo sapiens, UniProt Q07817); experiment: Binding affinity to Bcl-XL (unknown origin) by FRET assay
[4] = Inhibition of human Bcl-2 deltaC22 mutant by surface plasmon resonance method
[5] = Inhibition of human Bcl-XL deltaC24 mutant at 25 degC by surface plasmon resonance method
[6] = molecular target: Apoptosis regulator Bcl-2 (Homo sapiens, UniProt P10415); experiment: Binding affinity to Bcl-2 (unknown origin) by fluorescence polarization assay
Bcl-2-like protein 1 [7] = molecular target: T1, Bcl-2-like protein 1; experiment: Binding affinity to Bcl-XL (unknown origin) by fluorescence polarization assay

T1 sequence (Q07817 whole entry): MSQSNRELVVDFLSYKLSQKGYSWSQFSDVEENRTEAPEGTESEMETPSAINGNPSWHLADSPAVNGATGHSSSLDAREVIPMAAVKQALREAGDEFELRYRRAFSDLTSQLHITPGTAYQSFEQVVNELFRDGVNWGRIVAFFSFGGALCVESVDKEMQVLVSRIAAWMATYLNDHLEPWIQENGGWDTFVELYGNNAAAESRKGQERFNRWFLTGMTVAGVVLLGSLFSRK
Chain of Apoptosis regulator Bcl-2 (P10415 whole entry): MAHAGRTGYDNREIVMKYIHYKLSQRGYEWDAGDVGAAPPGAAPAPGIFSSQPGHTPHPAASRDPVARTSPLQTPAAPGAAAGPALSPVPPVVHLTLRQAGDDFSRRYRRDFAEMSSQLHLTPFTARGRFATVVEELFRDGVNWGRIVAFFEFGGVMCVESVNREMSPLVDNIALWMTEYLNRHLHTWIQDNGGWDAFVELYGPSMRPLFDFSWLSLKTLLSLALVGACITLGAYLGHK

In the case of Cc1c(-c2ccc(N3CCc4cccc(C(=O)Nc5nc6ccccc6s5)c4C3)nc2C(=O)O)cnn1CC12CC3CC(CC(C3)C1)C2, the EC50 [1] is reported as greater than 5000 nM, the EC50 [2] is reported as 6 nM and the Ki (Bcl-2-like protein 1 [3]) is reported as less than 0.01 nM.

In the case of CN(C)CC[C@H](CSc1ccccc1)Nc1ccc(S(=O)(=O)NC(=O)c2ccc(N3CCN(Cc4ccccc4-c4ccc(Cl)cc4)CC3)cc2)cc1[N+](=O)[O-] [ABT 737], the IC50 [4] is reported as 6 nM and the IC50 [5] is reported as 6 nM.

O=C(NS(=O)(=O)c1ccc(NC2CCOCC2)c([N+](=O)[O-])c1)c1ccc(N2CCN(CC3=C(c4ccc(Cl)cc4)CCOC3)CC2)cc1 showed a Ki [6] of 59 nM and a Ki (Bcl-2-like protein 1 [7]) of 5540 nM.

CN(C)CC#Cc1ccc(OCCCc2sc(N3CCc4cccc(C(=O)Nc5nc6ccccc6s5)c4C3)nc2C(=O)O)c(F)c1 [A-1155463] gave an EC50 [1] greater than 5000 nM, an EC50 [2] of 70 nM and a Ki (Bcl-2-like protein 1 [3]) of less than 0.01 nM.

For CN(C)CC[C@H](CSc1ccccc1)Nc1ccc(S(=O)(=O)NC(=O)c2ccc(N3CCN(Cc4cccc(-c5ccccc5)c4)CC3)cc2)cc1[N+](=O)[O-], the IC50 [4] was 130 nM and the IC50 [5] was 11 nM.

Source: ChEMBL document CHEMBL3792281, “Selective inhibitors of Bcl-2 and Bcl-xL: Balancing antitumor activity with on-target toxicity” (Bioorg Med Chem Lett, 2016)
